Reference: patent publication US20240000872A1, “NOVEL BACTERIOPHAGE THAT LYSES ACINETOBACTER GENUS BACTERIA HAVING RESISTANCE TO ANTIBIOTICS” (priority 2020, published 2024)

Test system: Acinetobacter baumannii strains
Test: Antibiotic susceptibility test (CLSI disk diffusion test method, read per CLSI 2016); note: key: ‘S’ means susceptible; ‘I’ means intermediate; ‘R’ means resistant
Type: cell-based

## CN(C)c1cc(NC(=O)CNC(C)(C)C)c(O)c2c1C[C@H]1C[C@H]3[C@H](N(C)C)C(O)=C(C(N)=O)C(=O)[C@@]3(O)C(O)=C1C2=O [Tigecycline, tigecycline]
Host strain YMC14/01/C29
  antibiotic susceptibility class: S
Host strain YMC14/01/IP122
  antibiotic susceptibility class: S
Host strain YMC14/01/L8
  antibiotic susceptibility class: S
Host strain YMC14/01/P31
  antibiotic susceptibility class: S
Host strain YMC14/01/P117
  antibiotic susceptibility class: S
Host strain YMC14/01/P224
  antibiotic susceptibility class: I
Host strain YMC14/01/P727
  antibiotic susceptibility class: R
Host strain YMC14/01/P728
  antibiotic susceptibility class: S
Host strain YMC14/01/R130
  antibiotic susceptibility class: S
Host strain YMC14/01/R160
  antibiotic susceptibility class: S
Host strain YMC14/01/R198
  antibiotic susceptibility class: S
Host strain YMC14/01/R257
  antibiotic susceptibility class: S
Host strain YMC14/01/R270
  antibiotic susceptibility class: S
Host strain YMC14/01/R324
  antibiotic susceptibility class: S
Host strain YMC14/01/R443
  antibiotic susceptibility class: S
Host strain YMC14/01/R451
  antibiotic susceptibility class: S
Host strain YMC14/01/R560
  antibiotic susceptibility class: R
Host strain YMC14/01/R617
  antibiotic susceptibility class: S
Host strain YMC14/01/R671
  antibiotic susceptibility class: S
Host strain YMC14/01/R732
  antibiotic susceptibility class: R
Host strain YMC14/01/R767
  antibiotic susceptibility class: S
Host strain YMC14/01/R904
  antibiotic susceptibility class: S
Host strain YMC14/01/R905
  antibiotic susceptibility class: S
Host strain YMC14/01/R921
  antibiotic susceptibility class: S
Host strain YMC14/01/R941
  antibiotic susceptibility class: R
Host strain YMC14/01/R958
  antibiotic susceptibility class: R
Host strain YMC14/01/R1006
  antibiotic susceptibility class: S
Host strain YMC14/01/R1199
  antibiotic susceptibility class: S
Host strain YMC14/01/R1659
  antibiotic susceptibility class: S
Host strain YMC14/01/R1722
  antibiotic susceptibility class: S
Host strain YMC14/01/R1752
  antibiotic susceptibility class: S
Host strain YMC14/01/R2429
  antibiotic susceptibility class: S
Host strain YMC14/01/R2572
  antibiotic susceptibility class: I
Host strain YMC14/01/R2855
  antibiotic susceptibility class: S
Host strain YMC14/01/R2945
  antibiotic susceptibility class: S
Host strain YMC14/01/R3007
  antibiotic susceptibility class: S
Host strain YMC14/01/R3129
  antibiotic susceptibility class: I
Host strain YMC14/01/R3317
  antibiotic susceptibility class: S
Host strain YMC14/01/R3474
  antibiotic susceptibility class: S
Host strain YMC14/01/R3574
  antibiotic susceptibility class: S
Host strain YMC14/01/U313
  antibiotic susceptibility class: R
Host strain YMC14/01/U318
  antibiotic susceptibility class: S
Host strain YMC14/02/L18
  antibiotic susceptibility class: S
Host strain YMC14/02/P47
  antibiotic susceptibility class: I
Host strain YMC14/02/R1860
  antibiotic susceptibility class: I
Host strain YMC14/02/R2417
  antibiotic susceptibility class: S
Host strain YMC14/02/R2599
  antibiotic susceptibility class: S
Host strain YMC14/02/R2668
  antibiotic susceptibility class: R
Host strain YMC14/02/R2758
  antibiotic susceptibility class: R
Host strain YMC14/02/R2781
  antibiotic susceptibility class: S
Host strain YMC14/02/R3106
  antibiotic susceptibility class: S
Host strain YMC14/02/R3419
  antibiotic susceptibility class: R
Host strain YMC14/02/U1607
  antibiotic susceptibility class: S
Host strain YMC14/03/L9
  antibiotic susceptibility class: S
Host strain YMC14/03/P471
  antibiotic susceptibility class: S
Host strain YMC14/03/R122
  antibiotic susceptibility class: R
Host strain YMC14/03/R217
  antibiotic susceptibility class: S
Host strain YMC14/03/R380
  antibiotic susceptibility class: R
Host strain YMC14/03/R618
  antibiotic susceptibility class: S
Host strain YMC14/03/R2144
  antibiotic susceptibility class: S
Host strain YMC14/03/U4616
  antibiotic susceptibility class: S
Host strain YMC14/04/R1078
  antibiotic susceptibility class: S
Host strain YMC14/04/R1080
  antibiotic susceptibility class: S
Host strain YMC14/06/R2359
  antibiotic susceptibility S/I/R: S
  susceptibility category (S/I/R): S
Host strain YMC14/08/R1169
  antibiotic susceptibility S/I/R: R
  susceptibility category (S/I/R): R
Host strain YMC14/08/T90
  antibiotic susceptibility S/I/R: S
  susceptibility category (S/I/R): S
Host strain YMC15/02/R436
  susceptibility category (S/I/R): I
Host strain YMC15/02/T28
  antibiotic susceptibility S/I/R: S
  susceptibility category (S/I/R): S
Host strain YMC15/03/R1604
  antibiotic susceptibility S/I/R: S
  susceptibility category (S/I/R): S
Host strain YMC15/09/R1869
  susceptibility category (S/I/R): I
Host strain YMC16/01/P11
  antibiotic susceptibility S/I/R: S
  susceptibility category (S/I/R): S
Host strain YMC16/01/R123
  antibiotic susceptibility S/I/R: S
  susceptibility category (S/I/R): S
Host strain YMC16/01/R198
  antibiotic susceptibility S/I/R: S
  susceptibility category (S/I/R): S
Host strain YMC16/01/R353
  antibiotic susceptibility S/I/R: S
  susceptibility category (S/I/R): S
Host strain YMC16/01/R380
  antibiotic susceptibility S/I/R: S
  susceptibility category (S/I/R): S
Host strain YMC16/01/R397
  antibiotic susceptibility S/I/R: S
  susceptibility category (S/I/R): S
Host strain YMC16/01/R405
  antibiotic susceptibility S/I/R: R
  susceptibility category (S/I/R): R
Host strain YMC16/03/R4461
  susceptibility category (S/I/R): I
Host strain YMC16/05/R2210
  antibiotic susceptibility S/I/R: S
  susceptibility category (S/I/R): S
Host strain YMC16/07/R2512
  antibiotic susceptibility S/I/R: S
  susceptibility category (S/I/R): S
Host strain YMC16/09/R2471
  antibiotic susceptibility S/I/R: S
  susceptibility category (S/I/R): S
Host strain YMC16/10/R2537
  antibiotic susceptibility S/I/R: S
  susceptibility category (S/I/R): S
Host strain YMC16/12/B11422
  antibiotic susceptibility S/I/R: S
  susceptibility category (S/I/R): S
Host strain YMC16/12/B11449
  antibiotic susceptibility S/I/R: S
  susceptibility category (S/I/R): S
Host strain YMC16/12/B13325
  antibiotic susceptibility S/I/R: S
  susceptibility category (S/I/R): S
Host strain YMC16/12/P503
  antibiotic susceptibility S/I/R: S
  susceptibility category (S/I/R): S
Host strain YMC16/12/R4637
  susceptibility category (S/I/R): I
Host strain YMC17/01/B8053
  antibiotic susceptibility S/I/R: R
  susceptibility category (S/I/R): R
Host strain YMC17/01/B10087
  antibiotic susceptibility S/I/R: S
  susceptibility category (S/I/R): S
Host strain YMC17/01/B12075
  antibiotic susceptibility S/I/R: S
  susceptibility category (S/I/R): S
Host strain YMC17/01/B13454
  antibiotic susceptibility S/I/R: S
  susceptibility category (S/I/R): S
Host strain YMC17/01/P518
  antibiotic susceptibility S/I/R: S
  susceptibility category (S/I/R): S
Host strain YMC17/01/R2812
  susceptibility category (S/I/R): I
Host strain YMC17/02/B14
  antibiotic susceptibility S/I/R: S
  susceptibility category (S/I/R): S
Host strain YMC17/02/B87
  antibiotic susceptibility S/I/R: S
  susceptibility category (S/I/R): S
Host strain YMC17/02/B721
  antibiotic susceptibility S/I/R: S
  susceptibility category (S/I/R): S
Host strain YMC17/02/B4039
  antibiotic susceptibility S/I/R: S
  susceptibility category (S/I/R): S
Host strain YMC17/02/B4520
  antibiotic susceptibility S/I/R: S
  susceptibility category (S/I/R): S
Host strain YMC17/02/B4864
  antibiotic susceptibility S/I/R: S
  susceptibility category (S/I/R): S
Host strain YMC17/02/B8414
  antibiotic susceptibility S/I/R: R
  susceptibility category (S/I/R): R
Host strain YMC17/02/P523
  antibiotic susceptibility S/I/R: S
  susceptibility category (S/I/R): S
Host strain YMC17/02/R541
  susceptibility category (S/I/R): I
Host strain YMC17/02/R2392
  antibiotic susceptibility S/I/R: S
  susceptibility category (S/I/R): S
Host strain YMC17/03/B4730
  antibiotic susceptibility S/I/R: R
  susceptibility category (S/I/R): R
Host strain YMC17/03/B5000
  antibiotic susceptibility S/I/R: S
  susceptibility category (S/I/R): S
Host strain YMC17/03/P971
  antibiotic susceptibility S/I/R: R
  susceptibility category (S/I/R): R
Host strain YMC17/03/R348
  antibiotic susceptibility S/I/R: S
  susceptibility category (S/I/R): S
Host strain YMC17/03/R585
  susceptibility category (S/I/R): I
Host strain YMC17/03/R1888
  antibiotic susceptibility S/I/R: R
  susceptibility category (S/I/R): R
Host strain YMC17/03/R3279
  antibiotic susceptibility S/I/R: S
  susceptibility category (S/I/R): S
Host strain YMC17/03/R4077
  antibiotic susceptibility S/I/R: R
  susceptibility category (S/I/R): R
Host strain YMC17/03/R4607
  antibiotic susceptibility S/I/R: S
  susceptibility category (S/I/R): S
Host strain YMC17/04/R488
  antibiotic susceptibility S/I/R: S
  susceptibility category (S/I/R): S
Host strain YMC17/04/R640
  antibiotic susceptibility S/I/R: R
  susceptibility category (S/I/R): R
Host strain YMC/17/05/R1095
  susceptibility category (S/I/R): I
